Test results published in patent publication US20090298915A1, “TOPICAL DRUG DELIVERY” (priority 2006, published 2009).

Key:
[1] = Ex vivo skin penetration, Franz diffusion chamber, human skin; type: in vitro ADME; conditions: fluorescein-labelled compounds, 10^−3 M, up to 3 hours
Source text: (§1) The penetration of the relevant compounds into mouse, pig and human skin was investigated using a Franz diffusion chamber system; this approach ensured a sealed system which prevented any leakage between the upper donor compartment and the lower receptor compartment. Circular full thickness skin samples (6 mm diameter) which had been cut with a punch biopsy blade were mounted into the diffusion chamber, with the stratum corneum facing upwards so that it was exposed to donor compartment, and with the receptor compartment filled with PBS. The compound under investigation was applied to the donor compartment so that it lay on the outer skin surface, and the chamber incubated at room temperature or at 37° C. for up to 3 hours. At the end of this incubation period, the remaining solution was removed from the upper compartment, and the skin washed three times with PBS. The skin was then bisected and half of it was snap frozen in liquid nitrogen for cryosectioning whereas the other half was fixed in 4% paraformaldehyde for 3 hours prior to paraffin blocking for cutting tissue sections. The skin sections were mounted on glass and visualised under fluorescent microscopy.
(§2) Penetration of αMSH into skin was examined using an ex-vivo mouse, pig and human skin model. […]

B16F10 cells = experiment: Transport into B16F10 cells, fluorescence and confocal microscopy; type: cell-based, murine; conditions: TyrPNA-PPL-fluo at 3×10^−5 M and at 10^−4 M
Protocol: Experiments to investigate the transport of each compound into cells in culture were performed at 3 hours and 24 hours. Cells were seeded (at 1×10^5 cells per well for 3 hours treatment or 5×10^4 cells per well for 24 hours treatment) on 1% (w/v) poly-L-lysine coated glass coverslips in 12 well plates and incubated overnight at 5% CO2 and 37° C.; poly-L-lysine coating of glass coverslips was employed to prevent the fluo-labelled PPL compounds adhering to the glass and causing background fluorescence. Cells were then washed with PBS, and incubated at 5% CO2 and 37° C. with the compound in the medium for 3 hours or 24 hours. The medium was subsequently removed and the cells washed twice with PBS, prior to fixation with 4% paraformaldehyde for 7 minutes, and then fixation was stopped with 50 mM ammonium chloride for 10 minutes. Cells were subsequently washed twice with PBS, and coverslips were mounted (with the cells facing downwards) onto a glass slide with vectashield, and the edges sealed with clear nail varnish to prevent drying. Fluorescence was detected by fluorescence microscopy and/or confocal microscopy. […]
Fluorescently-tagged compounds were used as noted above and intracellular fluorescence recorded as a measure of penetration.

[2] = test system: B16F10 murine melanoma cells; experiment: Pigmentation assay in alphaMSH-stimulated B16F10 cells; type: cell-based; conditions: B16F10, 48 hours, αMSH 10^−10 M, compound 10^−5 M
Protocol: (§3) S91 Cloudman murine melanoma cells were cultured for 5 days in the presence or absence of αMSH compounds. All experiments were carried out in triplicate wells on three separate occasions. Following culture, cells were washed twice with PBS and then dissociated with cell dissociation solution (Sigma, UK). An aliquot of cells were counted using a haemocytometer, and the remaining cells pelleted by centrifugation prior to lysis of the pellet with 200 μl of 1M NaOH. Melanin concentrations were determined against a standard synthetic melanin dose range using a spectrophometric plate reader (emission 450-492 nm).
B16F10 murine melanoma cells were cultured for 48 hours in the presence or absence of αMSH (10^−10 M) with or without TyrPNA or TyrASO and separately with or without TyrPNA-PPL or TyrASO-PPL. Pigmentation was assessed as described above.

[3] = Ex vivo skin penetration, Franz diffusion chamber, pig skin; type: in vitro ADME; conditions: fluorescein-labelled compounds, 10^−3 M, up to 3 hours
Source text: as §1, §2

[4] = Ex vivo skin penetration, Franz diffusion chamber, mouse skin; type: in vitro ADME; conditions: fluorescein-labelled compounds, 10^−3 M, up to 3 hours
Source text: as §1, §2

[5] = test system: S91 Cloudman murine melanoma cells; experiment: Pigmentation assay (melanin synthesis); type: cell-based; conditions: 5 days culture, 10^−8 M and 10^−6 M
Protocol: as §3

penetration into pig skin ex vivo [3] | Substance | penetration into human skin ex vivo [1] | penetration into B16F10 cells (intracellular fluorescence) (B16F10 cells) | darkening of the cell pellet induced by αMSH [2] | penetration into mouse skin ex vivo [4] | melanin synthesis by melanoma cells, potency compared with αMSH [5]
 | TyrPNA-fluo: fluorescein-labelled TyrPNA, FIG. 8 (GAACATTTTCTCCTT; all peptide nucleic acid (PNA); further chemistry not fully specified) | did not penetrate into skin | did not penetrate into B16F10 cells |  |  | 
 | TyrPNA: 15 mer antisense peptide nucleic acid (GAA CAT TTT CTC CTT; SEQ. ID no. 1) targeting murine tyrosinase, modified as in FIG. 7 (antisense GAACATTTTCTCCTT; all peptide nucleic acid (PNA); further chemistry not fully specified) [15 mer antisense peptide nucleic acid (GAA CAT TTT CTC CTT; ID no] |  |  | did not prevent the increased production of melanin |  | 
did not penetrate into skin | Fluo-Ahx-SYSMEHFRWGKPV-NH2 [Fluo-MSH] | did not penetrate into skin |  |  | did not penetrate into skin (except on a single occasion in mouse skin) | stimulated melanin synthesis by melanoma cells with similar potency to αMSH
